Values quoted from earlier work as cited in US11576929B2, “Composition for inflammatory gastrointestinal disorders” (SUMITOMO SEIKA CHEMICALS CO., LTD., priority 2018, dated 2023).

Tested on: colitis in rats
Conditions: direct inhalation into rats

Compound: [C-]#[O+] [CO (gas), carbon monoxide]
- colitis: inhibited colitis
